{"source": "patent US7863334B2", "about": "“Guanylhydrazone compounds, compositions, methods of making and using” (Cytokine PharmaSciences, Inc., priority 2004, dated 2011)", "key": {"[1]": {"tested_on": "TNFα release from LPS-induced RAW 264.7 cells", "test": "Inhibition of LPS-induced TNFα release from RAW 264.7 cells (ELISA)", "type": "cell-based", "conditions": "RAW 264.7 murine macrophage cells, 1 hour pretreatment, 100 ng/mL LPS, 24 hours", "method": "(§1) The present inventors measured the ability of eight test articles to inhibit LPS-induced nitric oxide and TNFα secretion from murine macrophage cells.\n(§2) The studies were conducted in RAW 264.7 cultures.\n(§3) RAW 264.7 murine macrophage cells (ATCC, TIB-71) were maintained at 5% CO2, 37° C. in RPMI media (Fisher 15-040-CV, 1 mg/L glutathione) with 10% fetal bovine serum (fbs, Fisher, lot 05069F) plus 2 mM L-glutamine and penicillin/streptomycin. The cells were subcultured every two to three days. Cells were plated in tissue culture treated 96 well plates at a density of 1×10^5 cells/well and incubated at 5% CO2, 37° C. for at least one hour prior to initiation of the assay. The cells were washed with RPMI with 10% fbs prior to the initiation of the assay.\nThe compounds were weighed, dissolved in DMSO for stock solutions of 10 mg/mL and serially diluted in RPMI. The plated RAW 264.7 cells were pretreated in duplicate with the test compounds, control (CNI-1493) or vehicle for 1 hour at final concentrations of 0, 0.1, 1.0, 10, and 100 μg/mL. The cells were stimulated with 100 ng/mL LPS (E. coli 0111:B4) and incubated at 5% CO2, 37° C. for 24 hours. The media was collected and stored at −20° C."}, "[2]": {"tested_on": "nitric oxide release from LPS-induced RAW 264.7 cells", "test": "Inhibition of LPS-induced nitric oxide (nitrite) release from RAW 264.7 cells (Griess reagent)", "type": "cell-based", "conditions": "RAW 264.7 murine macrophage cells, 1 hour pretreatment, 100 ng/mL LPS, 24 hours", "method": "as §1, §2, §3\nThe compounds were weighed, dissolved in DMSO for stock solutions of 10 mg/mL and serially diluted in RPMI. The plated RAW 264.7 cells were pretreated in duplicate with the test compounds, control (CNI-1493) or vehicle for 1 hour at final concentrations of 0, 0.1, 1.0, 10, and 100 μg/mL. […]\nTo 50 μL of cell-free media, 50 μL of Griess Reagent (1 part 0.1% naphthylethylenediamine diHCl, 1 part 1.32% sulfanilimide in 60% acetic acid) was added and incubated for no more than 5 minutes at ambient temperature. The samples were read on a microtiter plate reader at 540 nm and compared to a 0.1-5 nmol nitrite standard curve."}}, "data": [{"smiles": "C/C(=N\\N=C(N)N)c1cc(NC(=O)CCCCCCCCC(=O)Nc2cc(/C(C)=N/N=C(N)N)cc(/C(C)=N/N=C(N)N)c2)cc(/C(C)=N/N=C(N)N)c1.Cl.Cl.Cl.Cl", "note": "[CNI-1493]", "values": [{"measurement": "IC50 for inhibition of release of TNFα", "setting": "[1]", "result": "approximately 8 μg/mL"}, {"measurement": "IC50 for inhibition of nitric oxide release", "setting": "[2]", "result": "approximately 5.5 μg/mL"}]}]}
